Data on six compounds can be found in patent US7645745B2, “Antiviral nucleosides” (priority 2006, dated 2010).

Data set [1] is described as follows: Caco2 protocol: transport through Caco-2 cell monolayers (Papp). The format is in vitro ADME. The settings on record: human. The protocol:
(§1) To further evaluate potential behavior in human subjects, the transport through Caco-2 cells was evaluated for the putative prodrugs.
(§2) Powders of Krebs-Henseleit buffer, calcium chloride dihydrate, and sodium bicarbonate were purchased from Sigma (St. Louis, Mo.). Caco-2 cells (Passage˜100) were obtained from Roche Basel. Dulbecco's Modified Eagle's Medium (DMEM)/high medium, 4-(2-hydroxyethyl)-1-piperazineethane-sulfonic acid (HEPES), and bovine serum were obtained from JRH Bioscience (Lenexa, Kans.). MEM nonessential amino acids, L-glutamine, penicillin, and streptomycin were obtained from GIBCO Labs, Life Tech. LLC (Grand Island, N.Y.). Snapwell cell culture inserts (6.5 mm diameter, 1.12 cm^2, 0.4 μm pore size) were obtained from Costar (Cambridge, Mass.).
(§3) Culture media consisted of DMEM/high medium supplemented with 5% bovine serum, 25 mM HEPES, 1% MEM non-essential amino acids, 1% L-glutamine, 100 U/mL penicillin, and 100 μg/mL streptomycin. Cultures were passaged every week at a split ratio of 1-3. For the permeability studies, Caco-2 cells at passage number 110-120 were plated at a density of 400,000 cells/cm^2 on Transwell polycarbonate filters in Snapwell inserts and allowed to culture for 7 days prior to use.
(§4) Krebs-Henseleit bicarbonate buffer containing 10 mM glucose and 2.5 mM CaCl2 adjusted to pH 6.5 and 7.4 were prepared per packet instructions. Powder salts were quantitatively dissolved in about 90% of required volume with Millipore water. Calcium chloride dihydrate and sodium bicarbonate were added before pH adjustment with 1N HCl or 1N NaOH. Additional Millipore water was added to bring the solution to final volume. The solution was sterilized by filtration using membrane with a porosity of 0.22 microns and stored in the refrigerator ([…]) until use.
(§5) Snapwells inserts, containing caco-2 monolayers were rinsed in 37° C. equilibrated Krebs-Henseleit pH 7.4 buffer.
(§6) The cell insert was utilized as the diffusion chamber. The pH of the Krebs-Henseleit buffer in the apical and basolateral chambers was 6.5 and 7.4, respectively, and the initial concentration of substrate in apical side was 100 μM. […] The experiments were initiated when the cell inserts with 100 μM compounds in pH 6.5 Krebs-Henseleit buffer were transferred into a new plate with pre-equilibrated buffer in basolateral chamber. Samples from donor side at 0 min, and both donor and receiver sides at 30 min were collected for analysis.
(§7) Lucifer Yellow was used to assess the performance of the diffusion system. […] After 60 min of incubation, 250 μL was removed from the basal chamber and assayed.
(§8) The Papp was calculated using the following formula:
(§9) [formula] Where V is the volume (cm^3) of the receiver solution, A is the surface area (cm^2) of the Snapwell insert, Co is the initial concentration (nM), and dC/dt is the change in concentration in the receiver chamber over time, i.e., the slope (nM/min) of the concentration in the receiver chamber vs. time. Concentrations at each sampling time point were corrected to account for the aliquots removed or transferring of donor inserts to new plates depending on the experiment.
(Caco-2 monolayers are a common model of the intestinal barrier.)

Data set [2] relates to Caco-2 cells. Description: Caco2 protocol: transport through Caco-2 cell monolayers (Papp). The format is in vitro ADME. Particulars: Caco-2 cultured 7 days; apical pH 6.5, basolateral pH 7.4; 100 μM apical; 30 min. The protocol: as §1, §2, §3, §4, §5, §6, §7, §8, §9
Data set [3] in a line: Determination of pharmacokinetic parameters in rats (oral gavage, plasma LC/MS/MS). The settings on record: AUC(cyt) of parent cytidine nucleoside in plasma, dose equivalent to 10 mg/kg, male Hanover-Wistar rats. The format is in vivo, rat. The protocol:
Determination of Pharmacokinetic Parameters in Rats Intact male IGS Wistar Han Rats Crl:WI(GLx/BRL/Han)IGS BR (Hanover-Wistar) rats weighing 200-250 g were used. Groups of three rats were used for each dose level of an experimental compound. Animals were allowed normal access to chow and water throughout the experiment. The test substance was formulated as an aqueous suspension containing Captex 355EP, Capmul MCM, EtOH, and propylene glycol (30:20:20:30) at a dose equivalent to 10 mg/kg of the I-5 and was administered orally by gavage. A blood sample (0.3 mL) was collected from the treated rats at, 0.25, 0.5, 1, 3, 5, and 8 h from a jugular cannula and at 24 h by cardiac puncture. Potassium oxalate/NaF were added to the samples which were stored on ice during sampling procedure. The samples were spun in a refrigerated centrifuge at […] as soon as possible and the plasma samples were stored in a −80° C. freezer until analysis. Aliquots of plasma (0.05 mL) were mixed with 0.1 mL of acetonitrile. Internal standard (0.05 mL in water) and 0.02 mL blank solvent were added. […] Sample Analysis—Prodrugs were analyzed using high-performance liquid chromatography with tandem mass-spectrometry (HPLC/MS/MS). […]

The test system of data set [4] is HCV. The settings on record: monotherapy; cited from earlier work.

Read-outs that look alike come from different tables or passages of the source.

The term melting point denotes the temperature, or range, at which the solid turns liquid. `CCC(=O)OC[C@H]1O[C@@H](n2ccc(N)nc2=O)[C@](C)(O)[C@@H]1OC(=O)CC.Cl` [I-1, Propionic Acid (2R,3R,4R,5R)-5-(4-amino-2-oxo-2H-pyrimidin-1-yl)-4-hydroxy-4-methyl-3-propionyloxy-tetrahydro-furan-2-ylmethyl ester; Hydrochloride Salt] showed a melting point of 164.5 to 167 °C. This compound also displayed a Papp A→B at 30 min, 100 μM in data set [1] (Caco-2) of 0.11 ×10⁻⁶ cm/s.

For the compound `CC(C)C(=O)OC[C@H]1O[C@@H](n2ccc(N)nc2=O)[C@](C)(O)[C@@H]1OC(=O)C(C)C.Cl` [I-2, Iso-butyric Acid (2R,3R,4R,5R)-5-(4-amino-2-oxo-2H-pyrimidin-1-yl)-4-hydroxy-3-isobutyryloxy-4-methyl-tetrahydro-furan-2-ylmethyl ester; Hydrochloride Salt], in data set [2], the “Caco2 (7 day)” value is given as 1.06 cm/sec × 10^−6. For the same compound, the “Rat AUC” value in data set [3] amounted to 5600 ± 300 ng·h/mL.

`CCCCC(=O)OC[C@H]1O[C@@H](n2ccc(N)nc2=O)[C@](C)(O)[C@@H]1OC(=O)CCCC.Cl` [I-3, Pentanoic Acid (2R,3R,4R,5R)-5-(4-amino-2-oxo-2H-pyrimidin-1-yl)-4-hydroxy-4-methyl-3-pentanoyloxy-tetrahydro-furan-2-ylmethyl ester; Hydrochloride Salt]: the melting point lay within 158.2 to 159.2 °C. Besides, the Papp A→B at 30 min, 100 μM in data set [1] (Caco-2) came to 4.21 ×10⁻⁶ cm/s.

Regarding `C[C@@]1(O)[C@H](O)[C@@H](CO)O[C@H]1n1ccc(N)nc1=O` [I-4, 4-amino-1-((2R,3R,4R,5R)-3,4-dihydroxy-5-hydroxymethyl-3-methyl-tetrahydro-furan-2-yl)-1H-pyrimidin-2-one, reference compound], in data set [1] (Caco-2), the Papp A→B at 30 min, 100 μM was found to be 0.76 ×10⁻⁶ cm/s.

For `CC(C)C(N)C(=O)O[C@@H]1[C@@H](CO)O[C@@H](n2ccc(N)nc2=O)[C@]1(C)O` (stereo partly drawn) [I-5, reference compound], the Papp A→B at 30 min, 100 μM in data set [1] (Caco-2 cultured 7 days, apical pH 6.5, basolateral pH 7.4, 100 μM apical, 30 min, read-out: Caco2 (7 day)) was 0.12 ×10⁻⁶ cm/s.

For `NC(=O)c1ncn([C@@H]2O[C@H](CO)[C@@H](O)[C@H]2O)n1` [ribavirin, 1-((2R,3R,4S,5R)-3,4-Dihydroxy-5-hydroxymethyl-tetrahydro-furan-2-yl)-1H-[1,2,4]triazole-3-carboxylic acid amide], in data set [4], the “patients with serum amino transferase levels reduced to normal” value is given as 40%.
